Results taken from patent US12527774B2, “Estrogen-related receptor alpha modulators” (LEAD PHARMA HOLDING B.V., priority 2019, dated 2026).

Experiments:
[1] = target: ERRα ligand binding domain (ERRα-LBD) (Homo sapiens (Human), UniProt P11474); experiment: ERRα AlphaScreen Assay; assay type: biochemical; conditions: disruption of binding of ERRα-LBD protein to biotin-PGC1α-3 co-activator peptide; for IC50: read-out: mean pIC50 (converted)
Procedure, shortened: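 His-SUMO-tagged ERRα-LBD from E. coli (0.81 nM) preincubated 1 h at room temperature with compound, streptavidin donor and Ni-chelate acceptor beads (10 μg/mL each), then 2 h with 15 nM biotin-PGC1α-3 peptide (aa 202–220). Buffer: 50 mM Tris-HCl pH 7.5, 100 mM NaCl, 5 mM TCEP, 1% DMSO. Four-parameter IC50; mean pIC50 of replicate values.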

full length ERRα = full length ERRα (Homo sapiens (Human), UniProt P11474); experiment: Full Length ERRα Reporter Gene Assay; assay type: cell-based; conditions: SK-BR-3 cells, ERRα-RE luciferase reporter, overnight incubation; for IC50: read-out: mean pIC50 (converted)
full length ERRα, sequence (P11474 whole entry): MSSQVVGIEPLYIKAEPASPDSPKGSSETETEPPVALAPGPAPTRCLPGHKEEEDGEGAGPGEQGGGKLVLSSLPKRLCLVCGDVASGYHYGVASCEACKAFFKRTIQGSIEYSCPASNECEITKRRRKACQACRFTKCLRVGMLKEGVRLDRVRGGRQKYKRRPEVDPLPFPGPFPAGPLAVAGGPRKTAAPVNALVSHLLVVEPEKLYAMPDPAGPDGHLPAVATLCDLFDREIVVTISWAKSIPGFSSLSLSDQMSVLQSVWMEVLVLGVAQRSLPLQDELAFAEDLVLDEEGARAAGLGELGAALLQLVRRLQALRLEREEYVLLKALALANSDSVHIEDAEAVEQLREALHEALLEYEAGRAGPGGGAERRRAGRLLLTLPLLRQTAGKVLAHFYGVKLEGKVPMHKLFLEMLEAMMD
Text: Full Length ERRα Reporter Gene Assay
A method was established to quantitatively screen the potency of compounds with inverse agonistic activity on the nuclear receptor ERRα of the human species. The assay allows intra-cellular screening of ERRα inverse agonists in SK-BR-3 cells using an over-expression construct coding full length ERRα and a reporter construct containing an ERRα Response Element (RE) and a luciferase gene for read out. The activity is expressed in log IC50 values and can be used to determine SAR of compound families or to de-select compounds.
In this assay, reporter cells are obtained by transient co-transfection of two constructs in SK-BR-3 cells using standard transfection techniques. The first construct contains a response element of the nuclear receptor ERRα (Plasmid pLP2175, Reporter construct ERRα-RE/luc2P, cloned variant of ERRα_v2_synthRE, Switchgear Genomics, Catalog Number S900089). This sequence drives the transcription of the luciferase reporter gene in response to binding of an ERRα protein encoded by the second construct (Plasmid pLP2124: full length ERRα expression construct using pcDNA3.1/Hygro(+) as background, Invitrogen Catalog Number V87020).
The day after transfection, cells were plated into 96 well plates, test compound was added and the plates were incubated overnight. Subsequently, the firefly luciferase activity was quantified using luciferase detection reagent and luminescence readout.
Detailed Assay Description
Transfection is performed on pre-seeded SK-BR-3 cells in a T175 flask. One transfected T175 flask is sufficient for seeding 3 to 4 MW96 plates the next day, depending on the confluency of the transfected cells.
Two different media are used in this protocol for cell treatment: 1) Culture medium, i.e. McCoy's 5a with phenol red (BioWhittaker Supplier Number 12-688F), 10% FBS and 1× Penstrep.; and, 2) Assay medium, i.e. McCoy's 5a Medium phenol red free (HyClone Product Code SH30270.01) with 2% Charcoal Stripped FBS and 1× Penstrep. Compound dilutions are prepared in assay medium.
Cells are seeded at least 2 days in advance to allow the cells to adhere well to flask before transfection. Cells should be 50-80% confluent at the day of transfection.
SKBR3 cells were transfected with the transcriptional reporter construct pLP2175 and the ERRα expression construct pLP2124 (as described above).
68 μL of Lipofectamine LTX transfection reagent (Invitrogen Catalog Number 15338-100) was added dropwise to 8.9 ml Opti-MEM I Reduced Serum Medium (Gibco Catalog Number 51985-026) and incubated at room temperature for 5 to 20 minutes. 8.9 ml of this reagent mixture was added to 22 μg pLP2175+22 μg pLP2124 (ratio 1:1 and total volume 10 ml), and incubated at room temperature for 25 minutes.
10 minutes before adding the transfection mix to SKBR3 cells in a T175 flask, the culture medium was refreshed with 20 mL culture medium. Subsequently, the 10 mL DNA-Opti-MEM-Lipofectamine mixture was gently added to the cells, followed by overnight (16-24 hours) incubation at 37° C. and 5% CO2.
To harvest SKBR3 cells from a T175 flask, first the medium was removed. Subsequently, cells were washed with Phosphate Buffered Saline (PBS) (Lonza), after which the PBS was removed. To dissociate the cells, 2 ml of TrypLE Express (Invitrogen) was added to the flask, followed by incubation at 37° C. for 5 minutes. The flask was tapped until cells were detached from the bottom. Cells were collected in 8 mL of culture medium (McCoy's 5α, 10% FBS, penstrep), to achieve a single cell suspension. After cell count, cells were spun down for 5 minutes at 300 g. Next cell pellets were re-suspended to 25000 cells/80 μl assay medium (McCoy's 5a phenol red free, 2% charcoal stripped FBS, penstrep).
For compound screening, the cells were harvested (as described above). 80 μL of cell suspension (25,000 cells) was plated per well into a white, flat bottom, tissue culture treated, 96 well screening plates (Greiner). […]

ERRα ligand binding domain (ERRα-LBD), sequence (P11474 193-421): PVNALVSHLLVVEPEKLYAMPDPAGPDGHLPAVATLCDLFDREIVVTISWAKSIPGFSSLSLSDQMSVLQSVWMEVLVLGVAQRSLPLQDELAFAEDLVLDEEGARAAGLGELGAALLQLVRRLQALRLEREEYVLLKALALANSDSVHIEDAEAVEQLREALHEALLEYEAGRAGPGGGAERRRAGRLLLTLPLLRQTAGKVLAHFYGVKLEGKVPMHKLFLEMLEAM

Structure (SMILES) | mean pIC50 [1] | IC50 (full length ERRα) [nM] | mean pIC50 (full length ERRα) | IC50 [1] [nM]
COc1ccc(COc2ccc(C3CC(=O)Nc4[nH]nnc43)cc2OC)c(C(F)(F)F)c1 (stereo not drawn) [Example 91, 7-(3-methoxy-4-{[4-methoxy-2-(trifluoromethyl)phenyl]methoxy}phenyl)-3H,4H,5H,6H,7H-[1,2,3]triazolo[4,5-b]pyridin-5-one] | ≥ 8 | ≤ 316 |  | 
COc1ccc(COc2ccc(C3CC(=O)Nc4n[nH]cc43)cc2OC)c(C(F)(F)F)c1 (stereo not drawn) [Example 19, 4-(3-methoxy-4-{[4-methoxy-2-(trifluoromethyl)phenyl]methoxy}phenyl)-2H,4H,5H,6H,7H-pyrazolo[3,4-b]pyridin-6-one] | ≥ 8 | ≤ 316 |  | 
COc1cc(C2CC(=O)Nc3n[nH]cc32)ccc1OCc1ccc(C(F)(F)F)cc1C(F)(F)F (stereo not drawn) [Example 8, 4-(4-{[2,4-bis(trifluoromethyl)phenyl]methoxy}-3-methoxyphenyl)-2H,4H,5H,6H, 7H-pyrazolo[3,4-b]pyridin-6-one] | ≥ 8 | ≤ 316 |  | 
CCc1ccc(COc2ccc(-c3cc(=O)[nH]c4n[nH]cc34)cc2OC)c(C(F)(F)F)c1 [Example 175, 4-(4-{[4-ethyl-2-(trifluoromethyl)phenyl]methoxy}-3-methoxyphenyl)-2H,6H, 7H-pyrazolo[3,4-b]pyridin-6-one] | ≥ 8 | ≤ 316 |  | 
O=C1CC(c2ccc(OCc3ccccc3C(F)(F)F)c(OC(F)F)c2)c2c[nH]nc2N1 (stereo not drawn) [Example 68, 4-[3-(difluoromethoxy)-4-{[2-(trifluoromethyl)phenyl]methoxy}phenyl]-2H,4H,5H,6H, 7H-pyrazolo[3,4-b]pyridin-6-one] | ≥ 8 | ≤ 316 |  | 
COc1cc(C2CC(=O)Nc3n[nH]cc32)ccc1OCc1ccc(CCO)cc1C(F)(F)F (single isomer, unassigned; (-)) [Example 212, (−)-4-(4-{[4-(2-hydroxyethyl)-2-(trifluoromethyl)phenyl]methoxy}-3-methoxyphenyl)-2H,4H,5H,6H,7H-pyrazolo[3,4-b]pyridin-6-one] |  |  | ≥ 6.5 | 
COc1cc(C2CC(=O)Nc3n[nH]cc32)ccc1COc1ccc(C)cc1C(F)(F)F (single isomer, unassigned; (-)) [Example 214, (−)-4-(3-methoxy-4-{[4-methyl-2-(trifluoromethyl)phenoxy]methyl}phenyl)-2H,4H,5H,6H,7H-pyrazolo[3,4-b]pyridin-6-one] | ≥ 8 | ≤ 316 |  | 
COc1cc(C2CC(=O)Nc3n[nH]cc32)ccc1OCc1ccc(CC(O)CO)cc1C(F)(F)F (stereo not drawn) [Example 143, 4-(4-{[4-(2,3-dihydroxypropyl)-2-(trifluoromethyl)phenyl]methoxy}-3-methoxyphenyl)-2H,4H,5H,6H, 7H-pyrazolo[3,4-b]pyridin-6-one] | ≥ 8 | ≤ 316 |  | 
COc1cc(C2CC(=O)Nc3n[nH]cc32)ccc1OCc1ccc(CCO)cc1C(F)(F)F (single isomer, unassigned; (+)) [Example 211, (+)-4-(4-{[4-(2-hydroxyethyl)-2-(trifluoromethyl)phenyl]methoxy}-3-methoxyphenyl)-2H,4H,5H,6H,7H-pyrazolo[3,4-b]pyridin-6-one] |  | ≤ 316 |  | 10 to 100
COc1cc(C2CC(=O)Nc3n[nH]cc32)ccc1COc1ccc(C(F)F)cc1C(F)(F)F (stereo not drawn) [Example 115, 4-(4-{[4-(difluoromethyl)-2-(trifluoromethyl)phenoxy]methyl}-3-methoxyphenyl)-2H,4H,5H,6H,7H-pyrazolo[3,4-b]pyridin-6-one] | ≥ 8 | ≤ 316 |  | 
CCc1ccc(COc2ccc(C3CC(=O)Nc4n[nH]cc43)cc2OC)c(C(F)(F)F)c1 (single isomer, unassigned; (+)) [Example 207, (+)-4-(4-{[4-ethyl-2-(trifluoromethyl)phenyl]methoxy}-3-methoxyphenyl)-2H,4H,5H,6H,7H-pyrazolo[3,4-b]pyridin-6-one] |  | ≤ 316 |  | 
COc1ccc(COc2ccc(C3CC(=O)Nc4n[nH]cc43)cc2OC)c(C(F)(F)F)c1 (single isomer, unassigned; (-)) [Example 198, (−)-4-(3-methoxy-4-{[4-methoxy-2-(trifluoromethyl)phenyl]methoxy}phenyl)-2H,4H,5H,6H,7H-pyrazolo[3,4-b]pyridin-6-one] |  | ≤ 316 |  | 
COc1cc(C2CC(=O)Nc3n[nH]cc32)ccc1OCc1ccc(C(C)=O)cc1C(F)(F)F (single isomer, unassigned; (-)) [Example 200, (−)-4-(4-{[4-acetyl-2-(trifluoromethyl)phenyl]methoxy}-3-methoxyphenyl)-2H,4H,5H,6H,7H-pyrazolo[3,4-b]pyridin-6-one] |  | ≤ 316 |  | 
COc1ccc(COc2ccc(C3CC(=O)Nc4[nH]nnc43)cc2OC)c(C(F)(F)F)c1 (single isomer, unassigned; (-)) [Example 202, (−)-7-(3-methoxy-4-{[4-methoxy-2-(trifluoromethyl)phenyl]methoxy}phenyl)-3H,4H,5H,6H,7H-[1,2,3]triazolo[4,5-b]pyridin-5-one] |  | ≤ 316 |  | 
O=C1CC(c2ccc(OCc3ccccc3C(F)(F)F)c(C(F)(F)F)c2)c2c[nH]nc2N1 (stereo not drawn) [Example 76, 4-[3-(trifluoromethyl)-4-{[2-(trifluoromethyl)phenyl]methoxy}phenyl]-2H,4H,5H,6H, 7H-pyrazolo[3,4-b]pyridin-6-one] |  |  |  | 100 to 1000
COC(=O)c1ccccc1COc1ccc(C2CC(=O)Nc3n[nH]cc32)cc1OC (stereo not drawn) [Example 26, methyl 2-(2-methoxy-4-{6-oxo-2H,4H,5H,6H,7H-pyrazolo[3,4-b]pyridin-4-yl}phenoxymethyl)benzoate] |  |  |  | 10 to 100
CCOC(=O)c1cc(C2CC(=O)Nc3n[nH]cc32)ccc1OCc1ccccc1C(F)(F)F (stereo not drawn) [Example 128, ethyl 5-{6-oxo-2H,4H,5H,6H,7H-pyrazolo[3,4-b]pyridin-4-yl}-2-{[2-(trifluoromethyl)phenyl]methoxy}benzoate] |  |  |  | 10 to 100
O=C1CC(c2ccc(OCc3ccccc3C(F)(F)F)cn2)c2c[nH]nc2N1 (stereo not drawn) [Example 63, 4-(5-{[2-(trifluoromethyl)phenyl]methoxy}pyridin-2-yl)-2H,4H,5H,6H, 7H-pyrazolo[3,4-b]pyridin-6-one] |  |  |  | 100 to 1000
COc1ccc(C(F)(F)F)c(COc2ccc(C3CC(=O)Nc4n[nH]cc43)cc2OC)c1 (stereo not drawn) [Example 35, 4-(3-methoxy-4-{[5-methoxy-2-(trifluoromethyl)phenyl]methoxy}phenyl)-2H,4H,5H,6H,7H-pyrazolo[3,4-b]pyridin-6-one] |  |  |  | 10 to 100
COc1cc(C2CC(=O)Nc3n[nH]cc32)ccc1COc1cc(C)cc(C)c1 (stereo not drawn) [Example 113, 4-{4-[(3,5-dimethylphenoxy)methyl]-3-methoxyphenyl}-2H,4H,5H,6H,7H-pyrazolo[3,4-b]pyridin-6-one] |  |  |  | 100 to 1000
COc1cc(C2CC(=O)Nc3n[nH]cc32)ccc1OCc1ccc(N(C)C)cc1C(F)(F)F (stereo not drawn) [Example 138, 4-(4-{[4-(dimethylamino)-2-(trifluoromethyl)phenyl]methoxy}-3-methoxyphenyl)-2H,4H,5H,6H, 7H-pyrazolo[3,4-b]pyridin-6-one] | ≥ 8 |  |  | 
